{"source": "patent US5905089A", "about": "“Use of sesquiterpene lactones for treatment of severe inflammatory disorders” (Board of Supervisors of Louisiana State University and …, priority 1998, dated 1999)", "key": {"[1]": {"test_system": "ERK-2", "assay": "Tyrosine phosphorylation of ERK-2 in RAW 264.7 cells (antiphosphotyrosine immunoblot)", "format": "cell-based, murine", "settings": "3h pretreatment, LPS 1 μg/ml 30 min; FIG. 5A", "experimental": "(§1) Rat (Sprague-Dawley) alveolar macrophages were collected by broncho-alveolar lavage as described by Lee et al., J. Biol. Chem., vol. 267, pp. 25934-25938 (1992). The murine macrophage cell line RAW 264.7 (ATCC no. TIB-71) was cultured in Dubecco's modified Eagle's medium (DMEM) containing 10% heat-inactivated fetal bovine serum (FBS, Intergen). For the cyclooxygenase activity assay, cells were seeded in 24 well plates, and after near-confluency, cells were treated with aspirin (250 μM) for 2.5h to inactivate endogenous cyclooxygenase. […] COX activity was determined by measuring prostaglandin E2 concentrations in cells incubated with arachidonic acid (30 μM) for 10 minutes as described in Lee et al. (1992).\nThis detection technique was carried out essentially as described in Chanmugan et al. (1995) using 4G10 monoclonal antiphosphotyrosine antibody (UBI) and the ECL detection system (Amersham).\nParthenolide suppressed LPS-stimulated tyrosine phosphorylation of various proteins in RAW 264.7 cells as assessed by antiphosphotyrosine immunoblot, depicted in FIG. 5A. This inhibition was correlated with the suppressed expression of COX-2 and IL-1α. […] Therefore, the extent of tyrosine phosphorylation of JNK-1 was assessed by the electrophoretic mobility shift of phosphorylated JNK-1 as shown in FIG. 5B. […]"}, "[2]": {"test_system": "IL-1α", "assay": "IL-1α protein expression in LPS-stimulated alveolar macrophages (Western blot)", "format": "cell-based, Rat (Sprague-Dawley)", "settings": "16h, FIG. 3A", "experimental": "as §1\nThe protein levels of COX-2 and GAPDH were assessed by Western blot analysis using polyclonal antibodies as described in Lee et al. (1992). Polyclonal antibodies for IL-1α and JNK-1 were purchased from Genzyme and Santa Cruz Biotech, respectively.\nIn FIG. 3A, alveolar macrophages were incubated with LPS and various concentrations of parthenolide for 16h. Solubilized proteins were analyzed by COX-2, IL-1α or GAPDH immunoblotting. FIG. 3A is a representative immunoblot of more than five different analyses. Data are shown for various concentrations of both parthenolide (PTN) and herbimycin A (HER). […]"}}, "data": [{"molecule": "C=C1C(=O)O[C@H]2[C@H]1CC/C(C)=C/CC[C@@]1(C)O[C@@H]21", "note": "[Compound 1, Parthenolide]", "values": [{"measurement": "tyrosine phosphorylation of ERK-2", "setting": "[1]", "result": "inhibited by parthenolide in a dose-dependent manner"}, {"measurement": "expression of IL-1α protein", "setting": "[2]; listed as Parthenolide", "result": "inhibited"}, {"measurement": "expression of IL-1α protein", "setting": "[2]; listed as parthenolide", "result": "dose-dependent inhibition"}]}]}
